# Measurements as given in patent publication US10800807B2, “TGR5 modulators and methods of use thereof” (Intercept Pharmaceuticals, Inc., priority 2015, dated 2020).
# Residue numbers refer to the chain shown, from its start. Where two headings read alike, the source gives them in different places.
# Legend:
# [1] = biological target: T1, TGR5 (Homo sapiens, UniProt Q8TDU6); assay: TGR5 activity: cAMP in hTGR5 CHO-k1 cells; format: cell-based; parameters: expressed in transfected cells; host or cells: CHO-k1; conditions: for Emax: 0.5 h, read-out: hTGR5 CHO Efficacy; for EC50: cAMP
# T1 sequence (Q8TDU6 1-330): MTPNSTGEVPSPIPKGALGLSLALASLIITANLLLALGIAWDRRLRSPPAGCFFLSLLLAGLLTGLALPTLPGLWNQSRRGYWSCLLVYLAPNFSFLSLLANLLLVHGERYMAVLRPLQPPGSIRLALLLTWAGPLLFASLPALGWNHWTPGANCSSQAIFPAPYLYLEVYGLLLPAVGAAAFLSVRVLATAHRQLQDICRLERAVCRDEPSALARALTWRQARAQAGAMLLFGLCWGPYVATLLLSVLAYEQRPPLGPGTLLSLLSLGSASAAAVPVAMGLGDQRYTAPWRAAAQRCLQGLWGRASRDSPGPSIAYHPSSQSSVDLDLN
# [2] = biological target: T2, mouse glutathione transferase-tagged FXR-LBD (Mus musculus, UniProt Q60641); assay: FXR AlphaScreen coactivator recruitment assay (mouse); format: biochemical; conditions: for EC50: read-out: (mFXR) EC50; for Emax: read-out: (mFXR) Efficacy
# T2 construct: mouse glutathione transferase-tagged FXR-LBD (generated in-house); made in house
# T2 sequence (Q60641 264-488 limits assumed): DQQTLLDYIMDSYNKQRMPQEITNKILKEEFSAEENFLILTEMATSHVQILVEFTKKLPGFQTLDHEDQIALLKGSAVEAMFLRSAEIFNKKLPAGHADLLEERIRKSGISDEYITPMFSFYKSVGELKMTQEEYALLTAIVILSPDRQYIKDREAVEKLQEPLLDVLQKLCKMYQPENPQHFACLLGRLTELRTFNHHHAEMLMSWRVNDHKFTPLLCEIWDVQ
# Protocol: (§1) Activation of the FXR receptor was determined using a recruitment coactivator assay, namely AlphaScreen technology. The assays were performed using human glutathione transferase-tagged FXR-LBD (Life Technologies, USA) and mouse glutathione transferase-tagged FXR-LBD (generated in-house). Briefly, assays were conducted in white, low-volume, 384-well OptiPlate using a final volume of 25 μL containing 10 nM glutathione transferase-tagged FXR-LBD protein and 30 nM biotinylated Src-1 peptide. The stimulation was carried out with different BA concentrations for 30 minutes at 25° C. […] Dose-response curves were performed in triplicate and Z′ factor was used to validate the robustness of the assay.
# [3] = biological target: T1, TGR5; assay: TGR5 activity: intracellular cAMP levels, NCI-H716 cells (HTR-FRET); format: cell-based; parameters: endogenous in cells; host or cells: NCI-H716; conditions: for Emax: read-out: TGR5 (NCI-H716) Efficacy; for EC50: cAMP
# Protocol: Activation of TGR5 was assessed by measuring the level of cAMP using an HTR-FRET assay. Thus, NCI-H716 cells were cultured on 96-well plates coated with Matrigel (Corning, USA) (0.75 mg/ml) in DMEM supplemented with 10% FCS, 100 units/ml penicillin, and 100 μg/ml streptomycin sulphate. […] The level of intracellular cAMP was determined with Lance kit. Z′ factor was used to validate assays.
# [4] = biological target: T3, human glutathione transferase-tagged FXR-LBD (Homo sapiens, UniProt Q96RI1); assay: FXR AlphaScreen coactivator recruitment assay (human); format: biochemical; parameters: Emax: dose or concentration left out as unconfirmed; conditions: for EC50: human FXR-LBD, AlphaScreen, read-out: hFXR EC50; for Emax: read-out: hFXR Efficacy;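 on hFXR Efficacy: CDCA at 50 µM taken as 100%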
# T3 construct: human glutathione transferase-tagged FXR-LBD (Life Technologies, USA); purchased Life Technologies, USA
# T3 sequence (Q96RI1 262-486 limits assumed): T2 sequence (Q60641 264-488 limits assumed) with D7H, Y8F, S46N, I50V, A95S, A98S, K107N, V125I, M174I, Y175H
# Protocol: as §1
# [5] = biological target: T4, mTGR5 (Mus musculus, UniProt Q80SS6); assay: TGR5 activity: cAMP in mTGR5 CHO-Pi10 clone 4 cells; format: cell-based; conditions: for Emax: 0.5 h, read-out: (mTGR5 CHO) Efficacy
# T4 construct: expressed in transfected cells; host or cells: CHO-Pi10 clone 4
# T4 sequence (Q80SS6 1-329): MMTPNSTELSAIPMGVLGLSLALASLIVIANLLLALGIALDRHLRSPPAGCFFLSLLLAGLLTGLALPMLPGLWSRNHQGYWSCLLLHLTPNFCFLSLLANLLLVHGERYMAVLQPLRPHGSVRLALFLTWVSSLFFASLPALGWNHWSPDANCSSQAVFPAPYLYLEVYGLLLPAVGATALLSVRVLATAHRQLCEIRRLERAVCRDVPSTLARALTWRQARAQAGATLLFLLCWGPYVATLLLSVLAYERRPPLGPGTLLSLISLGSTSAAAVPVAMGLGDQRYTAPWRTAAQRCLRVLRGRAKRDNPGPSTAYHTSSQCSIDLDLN
# [6] = hTGR5 CHO cells, Ref. LCA 100% at 10 μM
# [7] = mouse FXR-LBD, value in parentheses
# [8] = 1 h, NCI-H716 cells, Ref. LCA 100% at 10 μM
# [9] = mTGR5 CHO cells, value in parentheses
SMILES,"Emax [1, 6] [%]",EC50 ([1]; hTGR5 CHO cells) [µM],"EC50 [2, 7] [µM]","Emax [2, 7] [%]","Emax [3, 8] [%]",EC50 ([3]; NCI-H716 cells) [µM],EC50 [4] [µM],Emax [4] [%],"Emax [5, 9] [%]","EC50 [5, 9] [µM]",Emax ([1]; CHO) [%],Emax ([5]; CHO) [%],Emax [2] [%],"Emax ([3]; NCI-H716, 1 h) [%]"
"CC[C@H]1[C@@H](O)[C@@H]2[C@H](C[C@H](O)[C@]3(C)[C@@H]([C@H](C)C[C@H](O)C(=O)O)CC[C@@H]23)[C@@]2(C)CC[C@@H](O)C[C@@H]12 [Compound 1, 3α,7α,12α,23(S)-tetrahydroxy-6α-ethyl-5β-cholan-24-oic acid]",103 ± 1,3.5 ± 1.5,146,9,40,19,32 ± 8,52,115,0.7,,,,
"CC[C@H]1[C@@H](O)[C@@H]2[C@H](C[C@H](O)[C@]3(C)[C@@H]([C@H](C)C[C@@H](O)C(=O)O)CC[C@@H]23)[C@@]2(C)CC[C@@H](O)C[C@@H]12 [Compound 2, 3α,7α,12α,23(R)-tetrahydroxy-6α-ethyl-5β-cholan-24-oic acid]",47.5 ± 2.5,17 ± 2,84,61,55,12,20 ± 9,200,93.5,1.5,,,,
"CC[C@H]1[C@@H](O)C2C3CC[C@H]([C@H](C)C[C@H](CO)C(=O)O)[C@@]3(C)[C@@H](O)CC2[C@@]2(C)CC[C@@H](O)C[C@@H]12 (stereo partly drawn) [Compound 5, 3α,7α,12α-Trihydroxy-6α-ethyl-23(B)-hydroxymethyl-5β-cholan-24-oic acid]",,21,,,,,20,37,,3.4,43.6,84.6,,
"CC[C@H]1[C@@H](O)[C@@H]2[C@H](C[C@H](O)[C@]3(C)[C@@H]([C@H](C)C[C@@H](CF)C(=O)O)CC[C@@H]23)[C@@]2(C)CC[C@@H](O)C[C@@H]12 [Compound 6, 3α,7α,12α-Trihydroxy-6α-ethyl-23(A)-fluoromethyl-fluoromethyl-5β-cholan-24-oic acid]",,29.5,,,,,> 100,,,3.8,28,81,,
"CC[C@H]1[C@@H](O)[C@@H]2[C@H](C[C@H](O)[C@]3(C)[C@@H]([C@H](C)C[C@H](CF)C(=O)O)CC[C@@H]23)[C@@]2(C)CC[C@@H](O)C[C@@H]12 [Compound 7, 3α,7α,12α-Trihydroxy-6α-ethyl-23(A)-fluoromethyl-fluoromethyl-5β-cholan-24-oic acid]",27,7.9,,,,,13,83,119,2,,,,
CC[C@@H]1C2C[C@H](O)CC[C@]2(C)C2CC[C@@]3(C)C(CC[C@@H]3[C@H](C)Cc3nn[nH]n3)C2[C@@H]1O (stereo partly drawn) [Compound 13],102 ± 3,1 ± 0.1,1.4,208,84 ± 14,6.4 ± 1.1,0.43,138,90,2.3,,,,
"CC[C@H]1[C@@H](O)C2C3CC[C@H]([C@H](C)CCc4noc(=O)[nH]4)[C@@]3(C)CCC2[C@@]2(C)CC[C@@H](O)C[C@@H]12 (stereo partly drawn) [Compound 16, 3α,7α-Dihydroxy-6α-ethyl-24-nor-5β-23([1,2,4]-oxadiazole-3-one-5-yl)-cholane]",99 ± 4,1.2 ± 0.1,6.6,204,116 ± 9,3 ± 0.3,0.15 ± 0.05,165 ± 19,99,0.44,,,,
CC[C@H]1[C@@H](O)[C@@H]2[C@H](CC[C@]3(C)[C@@H]([C@H](C)CCc4nc(=O)o[nH]4)[C@@H](O)C[C@@H]23)[C@@]2(C)CC[C@@H](O)C[C@@H]12 [Compound 18],104 ± 1,0.11 ± 0.03,2.3,150,115 ± 4,1.8 ± 0.2,0.55 ± 0.03,132 ± 8,101,0.37,,,,
CC[C@H]1[C@@H](O)C2C3CC[C@H]([C@H](C)CC(=O)NO)[C@@]3(C)CCC2[C@@]2(C)CC[C@@H](O)C[C@@H]12 (stereo partly drawn) [Compound 20],109 ± 5,0.3 ± 0.14,16,85,148 ± 1,0.7 ± 0.1,8.7 ± 0.04,122 ± 3,101,0.5,,,,
"CC[C@H]1[C@@H](O)C2C3CC[C@H]([C@H](C)CCc4nnc(NS(C)(=O)=O)o4)[C@@]3(C)CCC2[C@@]2(C)CC[C@@H](O)C[C@@H]12 (stereo partly drawn) [Compound 23, 2-(3α,7α-Dihydroxy-6α-ethyl-5β-cholan-24-nor-23-cholanyl)-5-methylsulfonamido-1,3,4-oxadiazole]",,1.3 ± 0.1,0.33,,,12.5 ± 1.5,0.1 ± 0.02,175 ± 22,,1.4,111 ± 2,110,342,75 ± 1
